Test results published in US20240024500A1, “ELECTROSTATIC NANOPARTICLES AND USE THEREOF” (Westfaelische Wilhelms-Universitaet Muenster, priority 2020, published 2024).
Where two headings read alike, the source gives them in different places.

Legend:
[1] = test system: HBL-1 DLBCL-cells; assay: NSG-HBL1 xenograft model; settings: after treatment start
[2] = Cell-free vesicle formation, light/fluorescence microscopy; type: physicochemical; settings: charged vs uncharged cargo, modified vs unmodified antibody
Procedure: Based upon these measurements, we hypothesized that the antibody-protamine/free SMCC-protamine/siRNA complexes form outside cells and independently of a cellular context. […]
We further analysed the properties of the different conjugation products according to their capacity to form vesicular-structures without cells when these conjugation products were incubated with Alexa488-control-siRNA (FIG. 40 G-L) as well as with EGFR-positive A459 cells (FIG. 40 M-R). When cetuximab was conjugated with SMCC-protamine at ratios of 1:1 up to 1:10, no efficient cell-free vesicle formation could be observed (FIG. 40 G-I), while at the ratio 1:32, the vesicle formation was very abundant FIG. 40 J) and decreased at ratios 1:50 and 1:100 (FIG. 40 K-L). The internalisation capacity of these complexes was highest upon conjugation 1:32 (FIG. 40 P), decrease upon conjugation 1:10 (FIG. 40 O). […] This hinted at an optimal complex formation of cetuximab with SMCC-protamine of 1:32, since this lead to the most efficient conjugation, vesicle formation without cells and internalisation into cells.
To further elucidate the function of SMCC-protamine coupled to the antibody and as free molecule within the complex, we titrated the amount of SMCC-protamine added to the antibody-protamine-conjugates that were depleted from free SMCC-protamine by HPLC. […] We added different amounts of free SMCC-protamine and protamine alone to anti-EGFR-mAB-P (FIG. 41).

[3] = test system: HBL-1 cells; assay: Colony formation assay, HBL-1, ibrutinib-Cy3.5 cargo; type: cell-based
Procedure: Next, we planned functional assays for identifying the effectivity of the antibody-inhibitor-complexes. DLBCL tumor cells were seeded in methylcellulose to form anchorage-free colony growth as a substitute marker for tumorigenicity. Assays were treated with combinations of antibody-inhibitor complexes and compared with appropriate control groups.
This colony-assay is used for quantification of anchorage-independent clonal cell growth and is a standard in vitro surrogate for tumorigenicity in vivo.

[4] = target: EGFR (epidermal growth factor receptor) on cells (UniProt P00533); assay: cell-based or functional assay

Compound	day by which all / the last mice had to be sacrificed [1] [days]	nanoparticle formation with antibody carriers [2]	nanoparticle formation with antibody carriers ([2]; listed as uncharged ibrutinib)	colony formation of HBL-1 cells [3]	Alexa488-siRNA shuttled into RD cells (FACS) [4]	internalisation of Alexa488-siRNA into RD cells (FACS) [4]	colony formation of HBL-1 cells ([3]; listed as unconjugated rituximab)	colony formation of HBL-1 cells ([3]; listed as unmodified rituximab (αCD20-mAB))
C=CC(=O)N1CCC[C@@H](n2nc(-c3ccc(Oc4ccccc4)cc3)c3c(N)ncnc32)C1 [ibrutinib, 1-[(3R)-3-[4-amino-3-(4-phenoxyphenyl)pyrazolo[3,4-d]pyrimidin-1-yl]piperidin-1-yl]prop-2-en-1-one]	20	not seen	not	much lesser degree	–	–	–	–
cetuximab-SMCC-protamine conjugate (anti-EGFR-mAB-protamine, used with free SMCC-protamine) (antibody)	–	–	–	–	> 90 % of cells	< 90 % of cells	–	–
rituximab: anti-CD20 antibody	≤ 16	not seen	–	–	–	–	only a mild effect	not
